Earlier results, collected in patent publication US20140220080A1, “IgA SECRETION PROMOTER” (MATSUTANI CHEMICAL INDUSTRY CO., LTD., priority 2013, published 2014).

System: IgA
Conditions: Patent Literature 1, 2; Non-Patent Literature 1-3

## OC[C@H]1O[C@@H](O[C@H]2[C@H](O)[C@@H](O)[C@@H](O[C@]3(CO)O[C@H](CO)[C@@H](O)[C@@H]3O)O[C@@H]2CO)[C@H](O)[C@@H](O)[C@H]1O [lactosucrose]
  action of promoting IgA secretion: have an action of promoting IgA secretion
